Laboratory results: patent US20130011393A1, “BAD PATHWAY GENE SIGNATURE” (priority 2010, published 2013)

Experiments:
Type in all cases: cell-based, human
[1] = system: OVCA cell lines (A2780S, A2780CP, A2008, C13); experiment: Cisplatin-resistance by CellTiter-96 MTS proliferation assay in serially cisplatin-treated OVCA cell lines; settings: after in vitro cisplatin-treatment/expansion cycles versus cells prior to serial cisplatin treatment
Procedure: Acquisition and culture conditions for the expansion of OVCA cells lines (T8, OVCAR5, OV2008, IGROV1, C13, A2780S, A2780CP, and A2008) were reported previouslyl^10. Cells were subjected to sequential treatment with increasing doses of cis-diammine-dichloroplatinum (cisplatin), using three dosing schedules resulting in […] treatment/expansion cycles. Treatment schedules A, B, and C included three treatments with 1, 2, and 3 μg/mL cisplatin, respectively, followed by three treatments with 3, 4, and 5 μg/mL, respectively. Each cisplatin treatment was followed by a cell recovery/expansion phase. Both cisplatin-resistance and genome-wide expression changes were measured serially in each cell line at baseline and after 3 and 6 cisplatin-treatment/expansion cycles. Cisplatin-resistance was quantified using CellTiter-96 MTS proliferation assays (Fisher Scientific) and analyzed genome-wide expression using Affymetrix Human U133 Plus 2.0 GeneChips as previously described^10,11 (Gene Expression Omnibus (GEO) accession number GSE23553).
Many of the BAD-pathway genes found to be associated with evolution of in vitro cisplatin-resistance are known to influence BAD phosphorylation (FIG. 12). The inventors therefore tested the hypothesis that BAD-phosphorylation status is associated with OVCA cisplatin-resistance. […]

A2780S and A2780CP cells = experiment: Apoptotic nuclei after cisplatin in cells transfected with BAD phosphorylation-site mutants; settings: 1 μM (A2780S) or 10 μM (A2780CP) cisplatin, 48 hours
Procedure: (§1) In FIGS. 14A and 14B, OVCA cell lines A2780S and A2780CP, respectively, were transfected with Flag vectors expressing wild-type BAD (WT) or BAD harboring serine (S) to alanine point mutations in serine-112, -136, or -155 (S112A, S136A, S155A). These S to A phosphorylation site mutations prevent phosphorylation of the BAD protein. Transfected cells were treated with vehicle or 1 μM (A2780S) or 10 μM (A2780CP) cisplatin for 48 hours and evaluated for the presence of apoptotic nuclei. FIG. 14C is a Western blot showing depletion of PP2C and PKA by siRNA. Controls included a non-targeting siRNA (NT). GAPDH was used as a loading control. […] Error bars indicate standard error of the mean.
(§2) RNA duplexes for PP2C/PPM1A (s10909 from ABI), cAMP-dependent protein kinase (PKA; 6406 from Cell Signaling), and vectors containing mutated BAD (pFlag-600, a kind gift from Dr. Hong Gang Wang, MCC) were transfected using the Nucleofector transfection kit, with non-targeting Silencer negative control #2 siRNA (ABI), according to manufacturer's protocols (Amaxa).
(§3) Morphologic assessment of condensed chromatin and fragmented DNA quantified percent apoptotic nuclei. Cells were fixed in 4% paraformaldehyde, and nuclei were stained with bis-benzimide trihydrochloride (0.5 μg/ml; Molecular Probes) and quantified using fluorescence microscopyl^5.

A2780S cells = experiment: Apoptotic nuclei after cisplatin following siRNA depletion of PKA or PP2C/PPM1A; settings: 1 μM cisplatin
Procedure: as §1, §2, §3

## N.N.[Cl][Pt][Cl] [cisplatin, cis-diammine-dichloroplatinum]
[1]
  cisplatin EC50: higher
A2780S and A2780CP cells; cells transfected with BAD[112A]
  cisplatin sensitivity (apoptotic nuclei): no effect
A2780S and A2780CP cells; cells transfected with BAD[S136A], BAD[S155A] versus wild-type BAD
  cisplatin-induced apoptosis (apoptotic nuclei): increased
A2780S cells; siRNA depletion of PKA versus non-targeting control siRNA
  cisplatin-induced apoptosis (percent apoptotic nuclei): increased
A2780S cells; siRNA depletion of PP2C/PPM1A
  cisplatin-induced apoptosis (percent apoptotic nuclei): decreased
